Measurements published in patent publication US7279473B2, “Pyrazolopyridazine derivatives” (SmithKline Beecham Corporation, priority 2001, dated 2007).

Columns and labels:
[1] = biological target: Cyclin D1 and cyclin-dependent kinase 4 (CDK4) (Homo sapiens, UniProt P11802); test: CDK4 substrate phosphorylation assay (phosphorylation of GST-Rb protein, [33P]-ATP); type: biochemical; settings: read-out: CDK4 inhibition
Description: The compounds of the present invention have valuable pharmacologic properties. Different compounds from this class are particularly effective at inhibiting CDK2 and/or CDK4 enzymes at concentrations, which range from 0.0001 to 1 μM and additionally show specificity relative to other kinases. Substrate phosphorylation assays were carried out as follows.
Cyclin D1 and cyclin-dependent kinase 4 were expressed utilizing a baculovirus expression system. The catalytic activity of CDK4 protein was assayed by measuring the phosphorylation of Rb protein. A truncated Rb protein (residues 773-928 of the native retinoblastoma protein, fused to glutathione S-transferase to facilitate purification) was used as the phosphoryl acceptor. The assay conditions were 100 mM HEPES (N-[2-hydroxyethyl]piperzine-N′-[2-ethanesulfonic acid]), pH 7.5, 0.5 μM GST-Rb protein, 1 μCi/mL [^33P]-ATP (1 nM-20 μM), 5-20 mM MgCl2, 2.5 mM EDTA, 1 mM dithiothreitol, 0.2 mg/mL bovine serum albumin, 2% (v/v) dimethyl sulfoxide (DMSO), CDK4 enzyme (5-50 nM) in a final volume of 50 μL Reactions were incubated for time periods of 10-60 min at 30° C. and terminated by the addition of 50 μL quench (1 mM ATP/100 mM EDTA, pH 7.0). Detection of protein phosphorylation was accomplished by scintillation counting following collection of protein in 96 well plates coated with Glutathione or trapping of protein onto phosphocellulose filters. Counts detected by these methodologies minus the appropriate background were assumed to be proportional to the reaction initial rates. […] IC50s were determined by a least squares fit to the equation CPM=Vmax*(1-([I]/(K+[I])))+nsb, or pIC50s were determined by a fit to the equation CPM=nsb+(Vmax−nsb)/(1+(x/10^x−pIC50)), where nsb are the background counts.

CDK2 = CDK2 (Homo sapiens, UniProt P24941); test: CDK2 substrate phosphorylation assay (biotinylated peptide, [g-32P]ATP); type: biochemical; settings: read-out: CDK2 inhibition
[2] = test system: chemotherapy-induced alopecia; test: Neonatal rat model of chemotherapy-induced alopecia; type: in vivo, Sprague Dawley rats; settings: compounds in 100% DMSO applied topically to the scalp prior to chemotherapy; scored at day 21
Excerpt: Animal Model for Chemoprotection
Neonatal rat model of chemotherapy-induced alopecia: Time-pregnant female Sprague Dawley rats were purchased from Charles River Breeding Laboratories. Rat pups born on the same day were randomized at birth to 15 or 16 pups/mom/cage and were housed with moms during the study period. Each experimental group consisted of either 5 or 8 rats. For the etoposide model of CIA, rat pups received etoposide (VePesid, Bristol Laboratories Oncology Products, Princeton, N.J.) 6 mg/kg, ip, at 13 days of age (23). […] Compounds were formulated in 100% DMSO and applied topically to the scalp, 50 μL per application. Pups were treated with two topical applications of compounds 10 hours and 4 hours (t=−10, −4 hours) on both days 12 and 13 prior to chemotherapy administration. Pups were separated from mom during the topical application dosing period to prevent grooming and removal of compound. […] Inhibitor efficacy data was analyzed by comparing the % of drug-treated responders and the % of vehicle-treated responders. The amount of hair present on rat scalp at day 21 were scored and averaged for each inhibitor treated rat and ranked as +, ++ and +++.

Sequence of Cyclin D1 and cyclin-dependent kinase 4 (CDK4) (P11802 whole entry, species assumed): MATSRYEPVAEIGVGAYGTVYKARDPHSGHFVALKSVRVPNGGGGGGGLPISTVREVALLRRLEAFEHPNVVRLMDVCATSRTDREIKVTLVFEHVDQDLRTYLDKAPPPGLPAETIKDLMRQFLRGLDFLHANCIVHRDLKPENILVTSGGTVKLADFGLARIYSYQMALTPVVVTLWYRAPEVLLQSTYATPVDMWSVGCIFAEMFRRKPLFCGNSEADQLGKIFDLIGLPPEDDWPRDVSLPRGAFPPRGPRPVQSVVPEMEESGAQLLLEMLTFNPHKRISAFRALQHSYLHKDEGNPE
Sequence of Cyclin D1 and cyclin-dependent kinase 4 (CDK4) (P24385 whole entry partner, species assumed): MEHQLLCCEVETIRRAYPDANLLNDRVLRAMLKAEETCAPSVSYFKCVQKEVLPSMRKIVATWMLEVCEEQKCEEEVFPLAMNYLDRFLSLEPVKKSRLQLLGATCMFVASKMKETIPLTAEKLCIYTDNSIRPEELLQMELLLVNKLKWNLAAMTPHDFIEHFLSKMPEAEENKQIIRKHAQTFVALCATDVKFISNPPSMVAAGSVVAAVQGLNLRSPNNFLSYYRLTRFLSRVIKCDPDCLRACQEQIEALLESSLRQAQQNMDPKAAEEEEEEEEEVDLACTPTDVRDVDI

SMILES | IC50 [1] | IC50 (CDK2) | Rank (amount of hair present on rat scalp at day 21) [2]
c1cnn2ncc(-c3ccnc(NC4CC4)n3)c2c1 [Example 1, N-Cyclopropyl-4-pyrazolo[1,5-b]pyridazin-3-yl-2-pyrimidinamine] | < 0.1 µM |  | 
Clc1ccc(Nc2nccc(-c3cnn4ncccc34)n2)cc1 [Example 5, N-(4-Chlorophenyl)pyrazolo[1,5-b]pyridazin-3-yl-2-pyrimidinamine] | < 0.1 µM | < 0.1 µM | 
N#Cc1cccc(Nc2nccc(-c3cnn4ncccc34)n2)c1 [Example 7, 3-[(4-Pyrazolo[1,5-b]pyridazin-3-yl-2-pyrimidinyl)amino]benzonitrile] | < 0.1 µM | < 0.1 µM | +++
FC(F)(F)c1cccc(Nc2nccc(-c3cnn4ncccc34)n2)c1 [Example 9, 4-Pyrazolo[1,5-b]pyridazin-3-yl-N-[3-(trifluoromethyl)phenyl]-2-pyrimidinamine] | < 0.1 µM | < 0.1 µM | ++
O=[N+]([O-])c1cccc(Nc2nccc(-c3cnn4ncccc34)n2)c1 [Example 10, N-(3-Nitrophenyl)-4-pyrazolo[1,5-b]pyridazin-3-yl-2-pyrimidinamine] | < 0.1 µM | < 0.1 µM | 
c1cc(Nc2nccc(-c3cnn4ncccc34)n2)cc(-c2cnco2)c1 [Example 14, N-[3-(1,3-Oxazol-5-yl)phenyl]-4-pyrazolo[1,5-b]pyridazin-3-yl-2-pyrimidinamine] | < 0.1 µM | < 0.1 µM | +
O=C1CCCN1CCCNc1nccc(-c2cnn3ncccc23)n1 [Example 22, 1-{3-[(Pyrazolo[1,5-b]pyridazin-3-yl-2-pyrimidinyl)amino]propyl}-2-pyrrolidinone] | < 0.1 µM | < 0.1 µM | 
COc1cc(Nc2nccc(-c3cnn4ncccc34)n2)cc(C(F)(F)F)c1 [Example 57] |  |  | +

Now from value to molecule, other results behind:

IC50 [1] | IC50 (CDK2) | SMILES | Rank (amount of hair present on rat scalp at day 21) [2]
< 0.1 µM | < 0.1 µM | CN1CCN(c2ccc(Nc3nccc(-c4cnn5ncccc45)n3)cc2Cl)CC1 [Example 23, N-[3-Chloro-4-(4-methyl-1-piperazinyl)phenyl]-4-pyrazolo[1,5-b]pyridazin-3-yl-2-pyrimidinamine] | +++
< 0.1 µM | < 0.1 µM | Cc1cc(Nc2nccc(-c3cnn4ncccc34)n2)ccc1N1CCN(C)CC1 [Example 25, N-[3-Methyl-4-(4-methyl-1-piperazinyl)phenyl]-4-pyrazolo[1,5-b]pyridazin-3-yl-2-pyrimidinamine] | 
< 1 µM | < 1 µM | COc1ccc2c(-c3ccnc(NC4CC4)n3)cnn2n1 [Example 36, N-Cyclopropyl-4-(6-methoxypyrazolo[1,5-b]pyridazin-3-yl)-2-pyrimidinamine] | 
< 1 µM | < 1 µM | Clc1ccccc1-c1ccc2c(-c3ccnc(NC4CC4)n3)cnn2n1 [Example 42, 4-[6-(2-Chlorophenyl)pyrazolo[1,5-b]pyridazin-3-yl]-N-cyclopropyl-2-pyrimidinamine] | 
< 0.1 µM | < 1 µM | CN(C)c1ccc(Nc2nccc(-c3cnn4nc(N5CCOCC5)ccc34)n2)cc1 [Example 53, N-^1-N^1-Dimethly-N^4-{4-[6-(4-morpholinyl)pyrazolo[1,5-b]pyridazin-3-yl]-2-pyrimidinyl}-1,4-benzenediamine] | 
 | < 0.1 µM | NS(=O)(=O)c1ccc(Nc2nccc(-c3cnn4ncccc34)n2)cc1 [Example 62, N-(4-aminosulfonylphenyl)-4-pyrazolo[1,5-b]pyridazin-3-yl-2-pyrimidinamine] | 
